Measured values from patent US11572369B2, “Bicyclic pyridine compositions and methods of using the same for cancer therapy” (UNIVERSITY OF SOUTH CAROLINA, priority 2019, dated 2023).

Tests used:
Assay in all cases: KINOMEscan
Assay type in all cases: binding
Settings in all cases: 2000 nM
[1] = target: ABL1(H396P)-nonphosphorylated (Homo sapiens, UniProt P00519, H396P)
ANKK1 = target: T1, ANKK1 (Homo sapiens, UniProt Q8NFD2)
T1 construct: DNA label (qPCR read-out); purchased KINOMEscan scanMAX panel (DiscoveRx)

CDC2L1 = target: T2, CDC2L1 (Homo sapiens, UniProt P21127)
T2 construct: DNA label (qPCR read-out); purchased KINOMEscan (ScanMAX panel service)

CDC2L2 = target: T3, CDC2L2 (Homo sapiens, UniProt Q9UQ88)
T3 construct: purchased DiscoverX (KINOMEscan service)

CSNK1A1L = target: T4, CSNK1A1L (Homo sapiens, UniProt Q8N752)
T4 construct: DNA label; purchased DiscoveRx (KINOMEscan scanMAX panel)
T4 sequence (Q8N752 whole entry): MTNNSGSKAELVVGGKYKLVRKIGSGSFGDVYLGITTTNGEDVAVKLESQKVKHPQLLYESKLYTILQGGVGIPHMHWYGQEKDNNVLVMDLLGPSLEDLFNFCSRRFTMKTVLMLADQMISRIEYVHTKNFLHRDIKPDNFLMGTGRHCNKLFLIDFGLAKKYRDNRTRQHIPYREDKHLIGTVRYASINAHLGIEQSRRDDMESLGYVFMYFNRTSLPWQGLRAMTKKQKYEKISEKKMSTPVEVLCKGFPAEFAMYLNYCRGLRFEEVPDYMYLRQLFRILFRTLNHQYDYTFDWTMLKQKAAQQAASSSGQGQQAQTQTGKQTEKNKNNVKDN

DAPK1 = target: T5, DAPK1 (Homo sapiens, UniProt P53355)
T5 construct: DNA label; purchased DiscoveRx (KINOMEscan scanMAX panel)

DCAMKL2 = target: T6, DCAMKL2 (Homo sapiens, UniProt Q8N568)
T6 construct: DNA label (qPCR read-out); purchased KINOMEscan (DiscoveRx) panel

DYRK2 = target: T7, DYRK2 (Homo sapiens, UniProt Q92630)
T7 construct: DNA label (qPCR read-out); purchased KINOMEscan (DiscoveRx) panel

EGFR(G719S) = target: T8, EGFR(G719S) (Homo sapiens, UniProt P00533, G719S)
T8 construct: purchased DiscoveRx (KINOMEscan scanMAX panel)

EPHA5 = target: T9, EPHA5 (Homo sapiens, UniProt P54756)
T9 construct: purchased DiscoveRx (KINOMEscan scanMAX panel)

EPHB1 = target: T10, EPHB1 (Homo sapiens, UniProt P54762)
T10 construct: purchased DiscoveRx (KINOMEscan scanMAX panel)
T10 sequence (P54762 18-984): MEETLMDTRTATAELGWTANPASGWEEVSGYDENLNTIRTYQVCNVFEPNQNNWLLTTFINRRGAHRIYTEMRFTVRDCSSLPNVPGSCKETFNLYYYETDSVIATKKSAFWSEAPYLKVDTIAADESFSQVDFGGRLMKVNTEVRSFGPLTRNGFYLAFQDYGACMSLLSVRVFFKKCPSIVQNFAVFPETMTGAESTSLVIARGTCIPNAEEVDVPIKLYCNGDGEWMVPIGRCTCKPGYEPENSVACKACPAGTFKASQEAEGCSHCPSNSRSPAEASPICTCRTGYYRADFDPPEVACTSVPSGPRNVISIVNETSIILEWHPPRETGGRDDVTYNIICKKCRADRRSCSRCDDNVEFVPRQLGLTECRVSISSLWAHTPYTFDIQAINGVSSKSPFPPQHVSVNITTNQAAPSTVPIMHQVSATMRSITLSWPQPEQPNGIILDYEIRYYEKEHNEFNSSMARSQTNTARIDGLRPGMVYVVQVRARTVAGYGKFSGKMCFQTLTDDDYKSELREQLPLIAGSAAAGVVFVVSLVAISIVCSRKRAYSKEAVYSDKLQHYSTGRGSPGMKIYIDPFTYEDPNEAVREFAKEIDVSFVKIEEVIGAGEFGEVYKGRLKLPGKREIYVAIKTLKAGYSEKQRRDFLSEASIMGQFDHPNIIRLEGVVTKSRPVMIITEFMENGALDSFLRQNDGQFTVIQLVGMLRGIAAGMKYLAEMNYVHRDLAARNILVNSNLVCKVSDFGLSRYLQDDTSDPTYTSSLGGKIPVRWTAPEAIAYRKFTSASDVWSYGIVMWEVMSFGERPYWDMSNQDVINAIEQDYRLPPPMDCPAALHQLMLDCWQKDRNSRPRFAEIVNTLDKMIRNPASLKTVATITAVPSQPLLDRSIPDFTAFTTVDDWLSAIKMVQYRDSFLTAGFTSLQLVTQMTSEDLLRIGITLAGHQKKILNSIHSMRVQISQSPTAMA

ERBB3 = target: T11, ERBB3 (Homo sapiens, UniProt P21860)
T11 construct: DNA label (qPCR read-out); purchased DiscoveRx (KINOMEscan ScanMAX panel)

ERBB4 = target: T12, ERBB4 (Homo sapiens, UniProt Q15303)
T12 construct: DNA label (qPCR read-out); purchased DiscoveRx (KINOMEscan ScanMAX panel)

ERN1 = target: T13, ERN1 (Homo sapiens, UniProt O75460)
T13 construct: DNA label (qPCR read-out); purchased DiscoveRx (KINOMEscan ScanMAX panel)

IRAK3 = target: T14, IRAK3 (Homo sapiens, UniProt Q9Y616)
T14 construct: DNA label (qPCR read-out); purchased KINOMEscan (DiscoveRx) ScanMAX panel

JNK2 = target: T15, JNK2 (Homo sapiens, UniProt P45984)
T15 construct: DNA label (for qPCR read-out); purchased DiscoveRx (KINOMEscan scanMAX panel)
T15 sequence (P45984 whole entry): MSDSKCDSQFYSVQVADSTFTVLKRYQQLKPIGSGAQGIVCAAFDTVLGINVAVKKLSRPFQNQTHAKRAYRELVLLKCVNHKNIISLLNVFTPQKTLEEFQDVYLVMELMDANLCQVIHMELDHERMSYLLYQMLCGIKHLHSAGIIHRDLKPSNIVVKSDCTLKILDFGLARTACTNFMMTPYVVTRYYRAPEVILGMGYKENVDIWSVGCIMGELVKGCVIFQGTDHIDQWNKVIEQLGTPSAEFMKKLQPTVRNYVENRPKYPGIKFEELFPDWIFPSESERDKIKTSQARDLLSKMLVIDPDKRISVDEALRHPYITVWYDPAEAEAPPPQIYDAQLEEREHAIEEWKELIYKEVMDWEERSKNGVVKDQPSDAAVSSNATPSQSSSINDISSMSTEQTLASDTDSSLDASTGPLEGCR

KIT = target: T16, KIT (Homo sapiens, UniProt P10721)
T16 construct: DNA label (for qPCR read-out); purchased DiscoveRx (KINOMEscan scanMAX panel)
T16 sequence (P10721 26-976): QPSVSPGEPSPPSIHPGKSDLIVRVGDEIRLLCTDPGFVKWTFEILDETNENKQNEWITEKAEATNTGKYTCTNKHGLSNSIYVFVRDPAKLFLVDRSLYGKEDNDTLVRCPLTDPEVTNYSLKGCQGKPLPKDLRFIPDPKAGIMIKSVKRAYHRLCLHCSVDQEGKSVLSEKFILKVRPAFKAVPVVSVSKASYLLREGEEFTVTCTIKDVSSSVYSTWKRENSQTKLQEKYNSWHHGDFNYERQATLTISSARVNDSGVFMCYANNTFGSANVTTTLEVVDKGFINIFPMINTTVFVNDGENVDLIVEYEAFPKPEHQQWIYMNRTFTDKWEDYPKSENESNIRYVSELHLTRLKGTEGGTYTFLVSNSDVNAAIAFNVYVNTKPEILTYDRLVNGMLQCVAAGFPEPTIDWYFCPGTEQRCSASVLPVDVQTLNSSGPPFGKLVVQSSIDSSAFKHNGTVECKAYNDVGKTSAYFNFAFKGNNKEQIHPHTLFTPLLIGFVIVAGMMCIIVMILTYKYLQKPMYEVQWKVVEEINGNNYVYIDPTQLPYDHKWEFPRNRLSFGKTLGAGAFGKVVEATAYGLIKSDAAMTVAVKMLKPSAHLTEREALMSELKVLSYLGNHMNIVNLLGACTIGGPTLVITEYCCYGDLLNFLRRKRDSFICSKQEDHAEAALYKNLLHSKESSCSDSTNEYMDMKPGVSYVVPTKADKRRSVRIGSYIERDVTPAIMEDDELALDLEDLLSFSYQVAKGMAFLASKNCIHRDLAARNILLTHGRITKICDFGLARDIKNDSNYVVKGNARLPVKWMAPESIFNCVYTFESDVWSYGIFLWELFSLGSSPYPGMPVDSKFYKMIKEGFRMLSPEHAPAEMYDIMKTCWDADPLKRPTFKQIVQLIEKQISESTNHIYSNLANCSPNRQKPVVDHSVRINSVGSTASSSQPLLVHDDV

KIT(D816V) = target: T17, KIT(D816V) (Homo sapiens, UniProt P10721, D816V)
T17 construct: DNA label (for qPCR read-out); purchased DiscoveRx (KINOMEscan scanMAX panel)
T17 sequence (P10721 26-976 D816V): as the sequence (P10721 26-976) above, with D791V counted along it

KIT(V559D) = target: T18, KIT(V559D) (Homo sapiens, UniProt P10721, V559D)
T18 construct: DNA label (for qPCR read-out); purchased DiscoveRx (KINOMEscan scanMAX panel)
T18 sequence (P10721 26-976 V559D): as the sequence (P10721 26-976) above, with V534D counted along it

KIT(V559D, T670I) = target: T19, KIT(V559D, T670I) (Homo sapiens, UniProt P10721, T670I/V559D)
T19 construct: purchased KINOMEscan (DiscoveRx) panel service
T19 sequence (P10721 26-976 V559D/T670I): as the sequence (P10721 26-976) above, with V534D, T645I counted along it

MLCK = target: T20, MLCK (Homo sapiens, UniProt Q32MK0)
T20 construct: DNA label (qPCR read-out); purchased KINOMEscan scanMAX panel (DiscoveRx)
T20 sequence (Q32MK0 whole entry): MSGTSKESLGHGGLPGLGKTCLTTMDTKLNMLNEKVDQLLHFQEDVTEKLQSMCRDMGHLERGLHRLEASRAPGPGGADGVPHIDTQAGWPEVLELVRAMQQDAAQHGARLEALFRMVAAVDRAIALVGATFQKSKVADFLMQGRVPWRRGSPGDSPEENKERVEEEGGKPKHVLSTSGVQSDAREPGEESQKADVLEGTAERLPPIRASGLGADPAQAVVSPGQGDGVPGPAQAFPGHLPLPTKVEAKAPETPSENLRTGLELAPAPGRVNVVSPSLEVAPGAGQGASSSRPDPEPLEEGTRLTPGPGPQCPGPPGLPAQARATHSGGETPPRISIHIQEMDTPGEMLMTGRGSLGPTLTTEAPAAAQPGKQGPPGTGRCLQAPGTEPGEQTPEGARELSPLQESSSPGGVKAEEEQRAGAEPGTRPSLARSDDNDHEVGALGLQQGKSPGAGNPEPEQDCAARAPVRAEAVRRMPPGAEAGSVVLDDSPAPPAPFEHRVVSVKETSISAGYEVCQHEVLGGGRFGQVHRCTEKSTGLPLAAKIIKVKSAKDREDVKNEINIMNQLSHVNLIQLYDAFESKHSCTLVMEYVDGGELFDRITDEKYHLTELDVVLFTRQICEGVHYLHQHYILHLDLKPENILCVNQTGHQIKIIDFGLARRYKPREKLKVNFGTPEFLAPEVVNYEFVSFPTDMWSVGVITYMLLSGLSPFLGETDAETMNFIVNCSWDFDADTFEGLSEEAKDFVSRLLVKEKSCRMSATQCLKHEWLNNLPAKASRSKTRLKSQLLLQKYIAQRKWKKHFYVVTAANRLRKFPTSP

MYLK2 = target: T21, MYLK2 (Homo sapiens, UniProt Q9H1R3)
T21 construct: DNA label (for qPCR read-out); purchased KINOMEscan scanMAX panel (DiscoveRx)
T21 sequence (Q9H1R3 whole entry): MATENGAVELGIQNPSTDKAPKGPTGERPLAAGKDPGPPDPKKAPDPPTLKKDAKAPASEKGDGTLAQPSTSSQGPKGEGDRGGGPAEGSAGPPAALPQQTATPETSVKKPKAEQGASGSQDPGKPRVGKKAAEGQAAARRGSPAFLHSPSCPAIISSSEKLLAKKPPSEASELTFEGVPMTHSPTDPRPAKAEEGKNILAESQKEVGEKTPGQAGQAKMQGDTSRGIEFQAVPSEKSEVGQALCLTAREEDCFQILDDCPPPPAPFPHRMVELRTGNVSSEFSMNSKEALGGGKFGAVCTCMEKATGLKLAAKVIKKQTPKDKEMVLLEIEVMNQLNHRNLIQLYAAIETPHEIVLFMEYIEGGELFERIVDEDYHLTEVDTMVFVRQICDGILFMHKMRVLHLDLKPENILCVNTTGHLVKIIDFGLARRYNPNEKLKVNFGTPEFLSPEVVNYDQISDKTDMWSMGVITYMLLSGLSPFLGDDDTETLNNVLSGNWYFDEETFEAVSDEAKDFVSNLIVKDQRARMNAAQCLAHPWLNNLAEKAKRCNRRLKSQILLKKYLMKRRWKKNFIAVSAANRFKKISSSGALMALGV

NEK7 = target: T22, NEK7 (Homo sapiens, UniProt Q8TDX7)
T22 construct: DNA label (qPCR read-out); purchased KINOMEscan (ScanMAX panel service)

PAK1 = target: T23, PAK1 (Homo sapiens, UniProt Q13153)
T23 construct: purchased DiscoverX (KINOMEscan service)

PAK4 = target: T24, PAK4 (Homo sapiens, UniProt O96013)
T24 construct: purchased DiscoverX (KINOMEscan service)

PFTK1 = target: T25, PFTK1 (Homo sapiens, UniProt O94921)
T25 construct: DNA label (for qPCR read-out); purchased DiscoveRx (KINOMEscan scanMAX service)
T25 sequence (O94921 whole entry): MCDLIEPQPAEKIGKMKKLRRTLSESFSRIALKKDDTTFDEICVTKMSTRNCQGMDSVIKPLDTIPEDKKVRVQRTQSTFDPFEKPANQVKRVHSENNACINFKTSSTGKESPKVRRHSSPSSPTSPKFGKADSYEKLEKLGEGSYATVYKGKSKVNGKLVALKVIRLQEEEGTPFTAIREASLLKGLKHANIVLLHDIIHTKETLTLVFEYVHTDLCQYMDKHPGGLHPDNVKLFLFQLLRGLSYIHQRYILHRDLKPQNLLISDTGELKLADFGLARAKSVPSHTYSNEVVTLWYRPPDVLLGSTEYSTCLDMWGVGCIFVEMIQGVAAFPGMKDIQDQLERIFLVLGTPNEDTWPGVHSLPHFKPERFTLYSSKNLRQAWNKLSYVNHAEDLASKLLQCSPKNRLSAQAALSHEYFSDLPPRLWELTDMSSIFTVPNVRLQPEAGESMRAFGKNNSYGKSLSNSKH

PIM1 = target: T26, PIM1 (Homo sapiens, UniProt P11309)
T26 construct: DNA label (qPCR read-out); purchased KINOMEscan (DiscoveRx) panel

PIM2 = target: T27, PIM2 (Homo sapiens, UniProt Q9P1W9)
T27 construct: DNA label (qPCR read-out); purchased KINOMEscan (DiscoveRx) panel
T27 sequence (Q9P1W9 whole entry): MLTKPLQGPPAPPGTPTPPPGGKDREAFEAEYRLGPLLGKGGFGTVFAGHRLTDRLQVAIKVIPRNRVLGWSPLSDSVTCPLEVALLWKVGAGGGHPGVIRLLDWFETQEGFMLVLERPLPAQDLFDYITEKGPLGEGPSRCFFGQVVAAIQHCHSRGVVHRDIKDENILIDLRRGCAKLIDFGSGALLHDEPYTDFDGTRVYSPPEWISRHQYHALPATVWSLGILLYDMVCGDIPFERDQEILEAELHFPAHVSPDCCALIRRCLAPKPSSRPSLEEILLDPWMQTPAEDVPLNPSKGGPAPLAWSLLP

PLK2 = target: T28, PLK2 (Homo sapiens, UniProt Q9NYY3)
T28 construct: purchased DiscoveRx (KINOMEscan scanMAX panel)

PRKG2 = target: T29, PRKG2 (Homo sapiens, UniProt Q13237)
T29 construct: purchased DiscoveRx (KINOMEscan scanMAX panel)

ROS1 = target: T30, ROS1 (Homo sapiens, UniProt P08922)
T30 construct: DNA label (qPCR read-out); purchased DiscoveRx (KINOMEscan ScanMAX panel)

[2] = target: T31, RSK3(Kin.Dom.1-N-terminal) (Homo sapiens, UniProt Q15349)
T31 construct: RSK3(Kin.Dom.1); purchased DiscoveRx (KINOMEscan scanMAX panel)

[3] = target: T32, RSK4(Kin.Dom.2-C-terminal) (Homo sapiens, UniProt Q9UK32)
T32 construct: RSK4(Kin.Dom.2); purchased DiscoveRx (KINOMEscan scanMAX panel)

TAOK1 = target: T33, TAOK1 (Homo sapiens, UniProt Q7L7X3)
T33 construct: DNA label (for qPCR read-out); purchased DiscoveRx (KINOMEscan scanMAX panel, contract assay)

TRKA = target: T34, TRKA (Homo sapiens, UniProt P04629)
T34 construct: DNA label (qPCR read-out); purchased KINOMEscan (DiscoveRx) ScanMAX panel

Structure (SMILES)	% Ctrl [1] [% Ctrl]	% Ctrl (ANKK1) [% Ctrl]	% Ctrl (CDC2L1) [% Ctrl]	% Ctrl (CDC2L2) [% Ctrl]	% Ctrl (CSNK1A1L) [% Ctrl]	% Ctrl (DAPK1) [% Ctrl]	% Ctrl (DCAMKL2) [% Ctrl]	% Ctrl (DYRK2) [% Ctrl]	% Ctrl (EGFR(G719S)) [% Ctrl]	% Ctrl (EPHA5) [% Ctrl]	% Ctrl (EPHB1) [% Ctrl]	% Ctrl (ERBB3) [% Ctrl]	% Ctrl (ERBB4) [% Ctrl]	% Ctrl (ERN1) [% Ctrl]	% Ctrl (IRAK3) [% Ctrl]	% Ctrl (JNK2) [% Ctrl]	% Ctrl (KIT) [% Ctrl]	% Ctrl (KIT(D816V)) [% Ctrl]	% Ctrl (KIT(V559D)) [% Ctrl]	% Ctrl (KIT(V559D, T670I)) [% Ctrl]	further results
CN(C)C(=O)c1ccc(N2CCCN(c3ccnc4sc(C(N)=O)c(N)c34)CC2)cc1 [15u, 3-amino-4-(4-(4-(dimethylcarbamoyl)phenyl)-1,4-diazepan-1-yl)thieno[2,3-b]pyridine-2-carboxamide]	100	100	63	100	67	92	100	100	100	89	88	100	85	100	93	99	95	93	98	100	% Ctrl (MLCK): 96 % Ctrl; % Ctrl (MYLK2): 100 % Ctrl; % Ctrl (NEK7): 100 % Ctrl; % Ctrl (PAK1): 96 % Ctrl; % Ctrl (PAK4): 87 % Ctrl; % Ctrl (PFTK1): 96 % Ctrl; % Ctrl (PIM1): 88 % Ctrl; % Ctrl (PIM2): 85 % Ctrl; % Ctrl (PLK2): 100 % Ctrl; % Ctrl (PRKG2): 98 % Ctrl; % Ctrl (ROS1): 95 % Ctrl; % Ctrl [2]: 99 % Ctrl; % Ctrl [3]: 94 % Ctrl; % Ctrl (TAOK1): 100 % Ctrl; % Ctrl (TRKA): 93 % Ctrl
[2H]C([2H])([2H])N(C(=O)c1ccc(N2CCCN(c3ccnc4sc(C(N)=O)c(N)c34)CC2)cc1)C([2H])([2H])[2H] [15u_D6, 3-amino-4-(4-(4-(bis(methyl-d3)carbamoyl)phenyl)-1,4-diazepan-1-yl)thieno[2,3-b]pyridine-2-carboxamide]	76	91	100	100	37	88	100	97	100	96	88	88	100	80	89	54	95	79	91	96	% Ctrl (MLCK): 100 % Ctrl; % Ctrl (MYLK2): 100 % Ctrl; % Ctrl (NEK7): 86 % Ctrl; % Ctrl (PAK1): 92 % Ctrl; % Ctrl (PAK4): 100 % Ctrl; % Ctrl (PFTK1): 100 % Ctrl; % Ctrl (PIM1): 100 % Ctrl; % Ctrl (PIM2): 89 % Ctrl; % Ctrl (PLK2): 86 % Ctrl; % Ctrl (PRKG2): 90 % Ctrl; % Ctrl (ROS1): 100 % Ctrl; % Ctrl [2]: 77 % Ctrl; % Ctrl [3]: 79 % Ctrl; % Ctrl (TAOK1): 73 % Ctrl; % Ctrl (TRKA): 78 % Ctrl
